From publication PMC9927415, “Tyrosine Kinase Inhibitors Display Potent Activity against Cryptosporidium parvum” (Microbiology Spectrum, 2022)
pKi: −log10 of the molar value.

Columns and labels:
PRKD2 = biological target: T1, PRKD2 (Homo sapiens, UniProt Q9BZL6); assay: KINOMEscan competitive binding; details: n=1, read-out: Percent inhibition, PRKD2
T1 construct: purchased DiscoverX (KINOMEscan)
T1 sequence (Q9BZL6 1-878): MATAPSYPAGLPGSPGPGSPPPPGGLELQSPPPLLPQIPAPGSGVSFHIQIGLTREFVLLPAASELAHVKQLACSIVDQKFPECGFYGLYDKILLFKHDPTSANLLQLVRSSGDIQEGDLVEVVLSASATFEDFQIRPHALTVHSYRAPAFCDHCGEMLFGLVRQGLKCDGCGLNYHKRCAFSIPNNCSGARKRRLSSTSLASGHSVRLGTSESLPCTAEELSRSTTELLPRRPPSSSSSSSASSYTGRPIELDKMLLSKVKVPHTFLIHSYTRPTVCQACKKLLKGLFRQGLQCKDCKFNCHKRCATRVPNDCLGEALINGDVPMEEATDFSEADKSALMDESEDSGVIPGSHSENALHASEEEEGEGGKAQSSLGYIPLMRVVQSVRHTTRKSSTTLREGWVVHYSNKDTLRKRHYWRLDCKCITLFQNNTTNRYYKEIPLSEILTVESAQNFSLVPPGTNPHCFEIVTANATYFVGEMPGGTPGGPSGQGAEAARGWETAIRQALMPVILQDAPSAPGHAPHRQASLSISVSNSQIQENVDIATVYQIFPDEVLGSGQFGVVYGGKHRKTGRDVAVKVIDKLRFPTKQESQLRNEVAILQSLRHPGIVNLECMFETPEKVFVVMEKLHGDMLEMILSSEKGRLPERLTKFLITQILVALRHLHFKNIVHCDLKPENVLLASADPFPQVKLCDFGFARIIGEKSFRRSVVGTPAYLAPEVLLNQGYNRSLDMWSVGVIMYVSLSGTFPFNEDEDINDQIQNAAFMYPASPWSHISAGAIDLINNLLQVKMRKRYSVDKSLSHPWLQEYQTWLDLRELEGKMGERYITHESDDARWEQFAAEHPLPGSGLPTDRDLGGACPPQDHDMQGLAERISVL

HepG2 cells = assay: Host cell cytotoxicity assay (CellTiter-Glo); details: HepG2 CC50/C. parvum EC50
Protocol: HepG2 cells were grown in Eagle’s Minimum Essential Medium (MEM) containing 10% FBS, 1% nonessential amino acids (NEAA) and 1% penicillin/streptomycin to >50% confluence prior to harvesting. Cells were suspended in media and 3000 cells per well were added onto 384-well clear bottom plates. Prior to addition of the cell suspension, the screening compounds (250 nl) were predispensed into plates using a liquid handler. Plates were incubated for 48 h at 37°C, 5% CO2. After 48 h of incubation, plates were equilibrated at room temperature for 30 min before luminescence signal was measured using CellTiter-Glo Reagent. Plates were kept at room temperature for 10 min to stabilize the signal and then read using a ViewLux luminescence reader. The HepG2 CC50 (from the host cell cytotoxicity assays) and C. parvum mean EC50 (from parasite growth inhibition assays) values were used to calculate selectivity index.

panel of 203 kinases = assay: KINOMEscan competitive binding, whole panel; set-up: species or system human; details: 10 μM; for number of other kinases strongly bound (≥99%): not including the CDKs and Aurora kinase A
How it was run: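 Percentage inhibition reflects loss of kinase binding to solid-phase ATP-site probe ligands in the presence of compound. Kinases carry a T7 bacteriophage fusion.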

ROCK1 = biological target: ROCK1; set-up: method as in earlier work; details: previous study; read-out: Ki against ROCK1; cited from earlier work
JAK3 = biological target: JAK3; set-up: method as in earlier work; details: previous study; read-out: Ki against JAK3; cited from earlier work
JAK kinase domains = assay: KINOMEscan competitive binding; set-up: species or system human; details: kinome profiling, 10 μM
Text: The kinases were expressed as fusions to T7 bacteriophage. This is a sensitive, competitive binding assay where test compounds were used to displace immobilized ATP-site binding probe ligands from kinases of interest. The amount of kinase that remained bound to the immobilized probe ligands on the solid support was quantified. Percentage inhibition data were was plotted on kinome trees using the web-based tool KinMap (http://www.kinhub.org/kinmap) ([60]).

Row | Compound | inhibition at 10 µM (PRKD2) [%] | Selectivity index (HepG2 cells) | other results
1 | C[C@@H](Oc1cc(-c2cnc3ccccn23)sc1C(N)=O)c1ccccc1Cl [Compound 8] | 0 |  | 
2 | Cc1ccc(O)cc1N(C)c1ccnc(Nc2cccc(S(N)(=O)=O)c2)n1 [Compound 4] | 96.6 |  | 
3 | COc1cc(Nc2nccc(-c3sc(N)nc3-c3cccc(NC(=O)c4c(F)cccc4F)c3)n2)cc(OC)c1OC [Compound 7] | 100 | 14 | number of kinases with >99% inhibition (panel of 203 kinases): 48
4 | CN1CCN(c2ccc(Nc3nccc(-c4cnn5ncccc45)n3)cc2C#N)CC1 [Compound 1] | 0 | >100 | number of other kinases strongly bound (≥99%) (panel of 203 kinases): 50
5 | Fc1cccc(COc2ccc(Nc3ncnc4c3CN(CCN3CCOCC3)CC4)cc2Cl)c1 [Compound 6] | 0 | >100 | 
6 | Cc1ccc(O)cc1Nc1ccnc(Nc2cccc(C(N)=O)c2)n1 [Compound 3] | 87.1 |  | 
7 | Clc1ccc(Nc2ncc(-c3ccccc3)s2)cc1 [Compound 10] | 0 |  | 
8 | COc1ccc(Nc2nccc(-c3cnn4ncccc34)n2)cc1 [Compound 2] | 75.3 | >100 | number of other kinases strongly bound (≥99%) (panel of 203 kinases): 28
9 | c1ccc(COc2cccc(-c3ccnc4[nH]ccc34)c2)cc1 [Compound 9] | 0 |  | pKi (ROCK1): > 6.30; pKi (JAK3): > 6.30; binding to JAK kinase domains, in words (JAK kinase domains): little binding
10 | Nc1ncc2c(-c3ccncc3)c[nH]c2n1 [Compound 11] | 0 | >100 | 
